Holding throughout (test): NCI tumour cell line growth inhibition, 48 h
For test [1], the system named is ACHN renal.
In test [2] the test system is HCT-116 colon.
In test [3] the test system is HCT-15 colon.
Test [4] deals with HT29 colon.
The test system of test [5] is LOX IMVI melanoma.
The subject of test [6] is M14 melanoma.
Test [7] has as its system MOLT-4 leukemia.
Test [8] concerns OVCAR-3 ovarian.
Test [9] deals with OVCAR-5 ovarian.
For test [10], the system named is OVCAR-8 ovarian.
Test [11] concerns SF-539 CNS.
For test [12], the system named is SK-MEL-2 melanoma.
Test [13] relates to SNB-19 CNS.
For test [14], the system named is SR leukemia.
Test [15] relates to TK-10 renal.
Test [16] concerns U251 CNS.
Test [17] deals with UO-31 renal.
Test [18] concerns HOP-92 NSCLC.
Test [19] has as its system MCF7 breast.
Test [20] relates to MDA-MB-231 breast.

SMILES strings stand for the structures.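 Compound exposure: 48 hours, 5 concentrations, 96-well plates. TGI marks complete inhibition of growth.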 Where only a bound is given, the exact number is not on record here.

For the compound `NNc1nnc(-c2ccccc2)nc1Cc1ccccc1`, the TGI in [1] was above 100 µM; in test [2], above 100 µM; in test [3], above 100 µM; in [4], above 100 µM; in [5], 30.5 µM; in test [6], 45.5 µM. Also, the TGI in test [7] is above 100 µM; in test [8], above 100 µM; in [9], above 100 µM; in test [10], 39.1 µM; in test [11] it was 64.1 µM; in test [12], above 100 µM. Moreover, the TGI is above 100 µM in test [13]; above 100 µM in test [14]; above 100 µM in test [15]; above 100 µM in test [16]; 31.6 µM in test [17].

For the compound `C/C(=N\NC(=O)c1ccncc1)c1cccc(C(F)(F)F)c1`, the TGI in test [3], in test [18], in test [4], in test [5], in test [6] and in [19] was above 10 µM each time. Besides, the TGI in test [20], in test [7], in [10], in [11], in test [14] and in [15] was above 10 µM in each case. Also, the TGI in test [16] and in test [17] was above 10 µM in each case.

Turning to `CCOC(=O)NC(OCc1ccccc1)(C(=O)OC)C(F)(F)F` (stereo unspecified), the TGI in test [1], in [2], in test [3], in test [18], in [4] and in test [5] was above 100 µM throughout. The TGI in [6], in test [19], in [20], in test [7], in [8] and in test [9] was above 100 µM each time. Besides, the TGI in [10], in test [11], in [12], in [13], in [14] and in [15] was above 100 µM throughout. Moreover, the TGI in test [16] and in [17] was above 100 µM throughout.
